Columns and labels:
[1] = tested on: SQSTM1 protein; assay: SQSTM1 protein abundance by Western blotting in MDA-MB-231 cells; assay type: cell-based, human; conditions: F1-Amide 20 μM, F1-RIBOTAC 10 μM, 48 h
Experimental: Measuring Protein Abundance by Western Blotting. MDA-MB-231 cells were seeded in 6-well plates at ˜50% confluency and treated with vehicle (DMSO) or compound as described above but without EU treatment. After 16 h, the compound-containing growth medium was removed and replaced with fresh medium containing compound (re-dosing). After an additional 32 h incubation, total protein was harvested (48 h total treatment time). The cells were then washed twice with cold 1×DPBS, and total protein was harvested by using Mammalian Protein Extraction Reagent (M-PER, Thermo Scientific) per the manufacturer's protocol. Protein concentration was quantified by using BCA Protein Assay Kit (Pierce), and the proteins were separated by using 10% SDS-polyacrylamide gel (20 μg protein per lane). After gel electrophoresis in 1× Running Buffer (50 mM MOPS, 50 mM Tris-base, pH 7.5, 1 mM EDTA, and 0.1% (w/v) SDS) at 120 V for 1 h, the proteins were transferred to a PVDF membrane (0.45 μm, Cytiva) at 300 mA for 1 h in 1× Transfer Buffer (25 mM Bicine, 25 mM Tris-base, pH 7.5, 1:4 MeOH:H2O). The membrane was blocked with 5% (w/v) non-fat dry milk in TBST (1×TBS containing 0.1% (v/v) Tween-20) for 1 h at room temperature. […] Expression levels of proteins were quantified based on band intensity by using ImageJ. […]

[2] = tested on: proteins of MDA-MB-231 cells (human proteome); assay: Proteomics analysis of proteins cross-linked in MDA-MB-231 cells; assay type: cell-based; conditions: of the 3,158 proteins detectable before pull-down
Experimental: Proteomic Sample Preparation and Analysis. MDA-MB-231 cells were seeded in 60 mm dishes and allowed to reach ˜80% confluency. The cells were then treated with […] of compound in growth medium and incubated for 16 h. Cells were washed with 1×DPBS and irradiated with UV light for 10 min. For each condition, two biological replicates were prepared, and each biological replicate was split into three technical replicates. […]
Pulled-down proteins were released from beads by resuspending in 6 M urea/1×PBS (0.5 mL) supplemented with 10 mM of TCEP at room temperature for 30 min. […] To the samples was added 1 volume of isopropanol containing 1% (v/v) trifluoroacetic acid, followed by a styrenedivinylbenzene reverse-phase sulfonate (SDB-RPS) StageTip 12 Peptides were resuspended in 0.1% (v/v) formic acid (FA) in water and analyzed using Proxeon EASY-nLC 1200 nano-UHPLC coupled to QExactive HF-X Quadrupole-Orbitrap mass spectrometer (Thermo Scientific). […]
The MS data were analyzed with MaxQuant13 (V1.6.1.0) and searched against the human proteome (Uniprot) and a common list of contaminants included in MaxQuant. […] The minimum peptide length was set to six amino acids and peptide re-quantification was enabled with the minimal number of peptides per protein set to 2. […]

SMILES	effect on SQSTM1 protein levels [1]	proteins selectively pulled-down (not pulled-down by the control probe) [2] [proteins]
CCOC(=O)C1=C(Nc2ccccc2)S/C(=C\c2ccc(OCCOCCOCCOCCNC(=O)CCC(=O)N(C)[C@H]3CC[C@@H](c4ccc(Cl)c(Cl)c4)c4ccccc43)c(O)c2)C1=O [Compound F1-RIBOTAC]	Neither	
C#CCCC1(CCC(=O)N(C)[C@H]2CC[C@@H](c3ccc(Cl)c(Cl)c3)c3ccccc32)N=N1 [Compound F1]		79

From US20250346943A1, “DEGRADER COMPOUNDS OF QSOX1 mRNA” (UNIVERSITY OF FLORIDA RESEARCH FOUNDATION, INCORPORATED, priority 2022, published 2025)
